Laboratory results: the supplement of paper PMC8967900

How the values were obtained:
Assay in all cases: selective drug sensitivity score (sDSS, relative to normal bone marrow) (sDSS (score)); higher = more potent and effective on the cell line relative to normal bone marrow cells
Details in all cases: 72 h
[1] = system: REH
[2] = system: NALL-1
[3] = system: MHH-CALL-2
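Also: ALL cell lines in 384-well plates, five doses spanning 10,000-fold, each plate scaled between vehicle and 100 µmol/L benzalkonium chloride controls, sDSS an adapted area-under-curve metric.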

Row | SMILES | selective drug sensitivity score [1] | selective drug sensitivity score [2] | selective drug sensitivity score [3]
1 | Nc1nc2[nH]cc(CCc3ccc(C(=O)N[C@@H](CCC(=O)O)C(=O)O)cc3)c2c(=O)[nH]1 [Pemetrexed] (top concentration 10000 nM) | 22.1 | 12.2 | 18.7
2 | Cc1ccc(C(=O)Nc2ccc(CN3CCN(C)CC3)c(C(F)(F)F)c2)cc1C#Cc1cnc2cccnn12 [Ponatinib] (top concentration 1000 nM) | 2.62 | -3.08 | 5.92
3 | C[C@]12C=CC(=O)C=C1CC[C@@H]1[C@@H]2[C@@H](O)C[C@@]2(C)[C@H]1CC[C@]2(O)C(=O)CO [Prednisolone] (top concentration 10000 nM) | -3 | 18 | 23.1
4 | CC(C)(C)c1cc(NC(=O)Nc2ccc(-c3cn4c(n3)sc3cc(OCCN5CCOCC5)ccc34)cc2)no1 [Quizartinib] (top concentration 1000 nM) | -1.52 | -1.02 | 2.38
5 | Nc1cc(F)ccc1NC(=O)/C=C/c1cnn(C/C=C/c2ccccc2)c1 [RGFP966] (top concentration 10000 nM) | 17.1 | 12.2 | 7.84
6 | CNC(=O)c1cc(Oc2ccc(NC(=O)Nc3ccc(Cl)c(C(F)(F)F)c3)c(F)c2)ccn1 [Regorafenib] (top concentration 10000 nM) | 4.44 | 3.24 | 1.64
7 | CN(C)Cc1ccc(S(=O)(=O)n2ccc(/C=C/C(=O)NO)c2)cc1 [Resminostat] (top concentration 10000 nM) | 2.04 | -4.46 | 8.14
8 | COc1cc(OC)c(/C=C/S(=O)(=O)Cc2ccc(OC)c(NCC(=O)O)c2)c(OC)c1 [Rigosertib] (top concentration 10000 nM) | 14 | 16.5 | 15.2
9 | COc1ccc(CCc2nc3cc(-c4c(C)noc4C)ccc3n2C[C@H](C)N2CCOCC2)cc1Cl [SGC-CBP30] (top concentration 25000 nM) | -0.02 | -0.62 | 5.88
10 | CCS(=O)(=O)c1cccc(-c2cc(C(=O)NC3CCN(C)CC3)c(C)c3[nH]c4ncc(C)cc4c23)c1 [TAK-901] (top concentration 1000 nM) | 11.1 | 11.8 | 7.26
11 | Nc1nc(NC2CC2)cc(-c2cccc(Cl)c2Cl)n1 [TH588] (top concentration 25000 nM) | 5.82 | -0.28 | -0.58
12 | CC(=O)Nc1ccc(C(=O)Nc2ccccc2N)cc1 [Tacedinaline] (top concentration 1000 nM) | -0.02 | -0.02 | 7.68
13 | Cn1ncnc1[C@H]1c2n[nH]c(=O)c3cc(F)cc(c23)N[C@@H]1c1ccc(F)cc1 [Talazoparib] (top concentration 1000 nM) | -3.72 | 8.78 | 9.48
14 | COc1cccc2c1c(O)c(C(=O)N(C)c1ccc(C(F)(F)F)cc1)c(=O)n2C [Tasquinimod] (top concentration 10000 nM) | -0.42 | -0.42 | 0.88
15 | Nc1nc2[nH]cnc2c(=S)[nH]1 [Thioguanine] (top concentration 10000 nM) | 10.8 | 8.64 | 11.9
16 | CC#CC(=O)N1CC[C@@H](n2c(=O)n(-c3ccc(Oc4ccccc4)cc3)c3c(N)ncnc32)C1 [Tirabrutinib] (top concentration 1000 nM) | 0 | 3.7 | 0
17 | CC(C)C[C@@H](C(=O)N[C@H](C(=O)OC1CCCC1)c1ccccc1)[C@H](O)C(=O)NO [Tosedostat] (top concentration 10000 nM) | -0.64 | 0.86 | 5.76
18 | CS(=O)(=O)c1ccc(-c2cnc(N)c(C(=O)Nc3ccccc3)n2)cc1 [VE-821] (top concentration 10000 nM) | 7.14 | -0.66 | 7.84
19 | CNC(=O)c1ccccc1Nc1cc(Nc2ccc(N3CCOCC3)cc2OC)ncc1C(F)(F)F [VS-4718] (top concentration 10000 nM) | -1.1 | 8.7 | 8.9
20 | Cc1cccc(-c2[nH]c(CNc3ccccc3F)nc2-c2ccc3ncnn3c2)n1 [Vactosertib (TEW-7197)] (top concentration 2500 nM) | -0.5 | -0.4 | -0.3
21 | O=C(/C=C\n1cnc(-c2cc(C(F)(F)F)cc(C(F)(F)F)c2)n1)NNc1ccccn1 [Verdinexor] (top concentration 1000 nM) | 4.44 | 0.64 | 1.84
22 | CC[C@@H]1C(=O)N(C)c2cnc(Nc3ccc(C(=O)N[C@H]4CC[C@H](N5CCN(CC6CC6)CC5)CC4)cc3OC)nc2N1C(C)C [Volasertib] (top concentration 1000 nM) | 12.8 | 12.3 | 10.6
23 | O=C(CCCCCCC(=O)Nc1ccccc1)NO [Vorinostat] (top concentration 10000 nM) | 4.5 | -3.5 | 8.7
